The numbers were not newly measured in US20240310266A1, “BIOMARKERS FOR CANCER AND METHODS OF USE THEREOF” (Novartis AG, priority 2021, published 2024), which cites them from elsewhere.

For the data set the following is noted: rats.

Turning to `CC(C)(C)c1nc(-c2cccc(NS(=O)(=O)c3c(F)cccc3F)c2F)c(-c2ccnc(N)n2)s1` [dabrafenib, N-{3-[5-(2-aminopyrimidin-4-yl)-2-tert-butyl-1,3-thiazol-4-yl]-2-fluorophenyl}-2,6-difluorobenzenesulfonamide], the proliferative skin lesions entry is “proliferative skin lesions observed”.
